Test results reported in article PMC8558867, “Development of BromoTag: A “Bump-and-Hole”–PROTAC System to Induce Potent, Rapid, and Selective Degradation of Tagged Target Proteins” (Journal of Medicinal Chemistry, 2021).
Read-outs that look alike come from different tables or passages of the source.

What was measured:
[1] = test system: untagged Brd2, Brd3, Brd4; test: Off-target degradation of endogenous BET proteins (western blot) in heterozygous BromoTag-Brd2 HEK293 cells; type: cell-based, human
Description: To establish the BromoTag platform and support the degrader structure–activity relationships (SARs) to identify the best compound, we sought a practical and simple system that enables us to best optimize not only the degradation efficiency but also the selectivity profile of our degraders. To this end, the endogenous BET family protein Brd2 was chosen as a model target due to the availability of a well-established antibody for Brd2 detection, and the expression of a single protein isoform detected as a single band in the western blot.[24] Because Brd2 contains endogenous bromodomains and is degraded by 1 and other BET PROTACs, we reasoned that a heterozygous knock-in cell line allows us to monitor simultaneously both on-target degradation (BromoTagged-Brd2) and off-target degradation (untagged Brd2) using the same antibody. Together with the potential off-target degradation of the other BET proteins Brd3 and Brd4, this system thus enables us to best monitor protein degradation selectivity. We therefore decided to add the BromoTag at the N-terminus of the endogenous Brd2 gene locus using CRISPR knock-in methodologies, thereby yielding a chimeric protein bearing three bromodomains (the exogenous BromoTag, in addition to the endogenous Brd2^BD1 and Brd2^BD2). Hereafter, we refer to on-target activity as the degradation of BromoTag-Brd2 and off-target activity as any degradation of either untagged Brd2 or endogenous Brd3 or Brd4.
All dose–response degradation assays were performed on the genotype-verified heterozygous BromoTag-Brd2 HEK293 cell line. Heterozygous BromoTag-Brd2 HEK293 cells were plated at a density of 5 × 10^5 cells per well of a six-well healthy plate a day before initiation of the titration experiment. PROTAC compounds were dissolved in DMSO at a concentration of 10 mM; from these stock concentrations, PROTAC compounds were diluted to appropriate concentrations using DMSO in the range of 10 μM to 1 nM. The compounds were then added to 2 mL of DMEM (Invitrogen, Carlsbad, CA, USA) supplemented with 10% (v/v) FBS (Thermo Fisher, Waltham, MA, USA) and 1% (v/v) penicillin/streptomycin (pen/strep) (#15140122, Thermo Fisher, Waltham, MA, USA) and added to the cells while initiating the experiment. Control compounds such as MZ1 and cis-MZ1 were similarly dissolved in DMSO to an appropriate concentration. All titration experiments were performed for a total of 6 h prior to being harvested and were kept at 37 °C, 5% CO2, and 95% humidity once treatment was applied until right before harvesting. The cells were washed twice with PBS before being harvested.
All cells were harvested on ice with RIPA lysis and extraction buffer (Thermo Fisher Scientific, 89901) supplemented with protease inhibitor cocktail (Merck, 11697498001) and Benzonase Nuclease (Sigma, E1014) before being stored at −20 °C prior to use. Total protein quantity was determined using the BCA protein assay (#23225, Pierce, Rockford, Illinois). The protein concentration was determined using the BCA assay (Thermo Fisher Scientific, 23225). The samples were then prepared and loaded onto NuPAGE 4–12% bis–tris Midi gels (Thermo Fisher Scientific, WG1403A), followed by the transfer of proteins onto nitrocellulose membranes (EMD Millipore). The membranes were blocked for 1 h prior to incubation with the primary antibodies using 5% Milk TBST. The membranes were probed for Brd2 (Abcam, Ab139690, 1:1000), Brd3 (Abcam, Ab50818, 1:4000), Brd4 (Abcam, Ab128874, 1:1000), or our polyclonal Brd4^BD2 L387A antibody. Following overnight incubation with the primary antibodies at 4 °C, the membranes were incubated with secondary antibodies (anti-rabbit, Abcam AB216773, 1:5000 or anti-mouse, Abcam AB216774, 1:5000) and hFABTM rhodamine anti-tubulin antibody (Biorad, 12004165, 1:10,000) for 1 h and then imaged with a Bio-Rad imager (LI-COR Biosciences). All western blots were analyzed for band intensities using Image Lab from Bio-Rad (LI-COR, Biosciences). […]

[2] = test system: BromoTag-Brd2; test: Dose–response degradation assay (western blot, 6 h) in heterozygous BromoTag-Brd2 HEK293 cells; type: cell-based, human; details: for pDC50 (Ab: Brd2) / pDC50 (Ab: Brd4^BD2 L387A) / Dmax (%) (Ab: Brd2) / Dmax (%) (Ab: Brd4^BD2 L387A): BromoTagged-Brd2, 6 h; for pDC50 (Ab: Brd2) / pDC50 (Ab: Brd4^BD2 L387A): mean ±S.E of three independent experiments; for hook effect: higher concentrations of 1–10 μM; for hook effect / DC50 / Dmax of BromoTag-Brd2 degradation: 6 h; for DC50: read-out: DC50 of BromoTag-Brd2 degradation; for pDmax (%) (Ab: Brd4BD2 L387A) / pDmax (%) (Ab:Brd2): supplementary CSV
Description: All dose–response degradation assays were performed on the genotype-verified heterozygous BromoTag-Brd2 HEK293 cell line. Heterozygous BromoTag-Brd2 HEK293 cells were plated at a density of 5 × 10^5 cells per well of a six-well healthy plate a day before initiation of the titration experiment. PROTAC compounds were dissolved in DMSO at a concentration of 10 mM; from these stock concentrations, PROTAC compounds were diluted to appropriate concentrations using DMSO in the range of 10 μM to 1 nM. […] Control compounds such as MZ1 and cis-MZ1 were similarly dissolved in DMSO to an appropriate concentration. […] The cells were washed twice with PBS before being harvested.
The membranes were blocked for 1 h prior to incubation with the primary antibodies using 5% Milk TBST. […] Following overnight incubation with the primary antibodies at 4 °C, the membranes were incubated with secondary antibodies (anti-rabbit, Abcam AB216773, 1:5000 or anti-mouse, Abcam AB216774, 1:5000) and hFABTM rhodamine anti-tubulin antibody (Biorad, 12004165, 1:10,000) for 1 h and then imaged with a Bio-Rad imager (LI-COR Biosciences). All western blots were analyzed for band intensities using Image Lab from Bio-Rad (LI-COR, Biosciences). The data extracted from these blots were then plotted and analyzed using Prism (v. 8.2.0, GraphPad).

[3] = diastereomeric mixtures, range over the two antibodies
[4] = 1 nM to 10 μM, 6 h, diastereomeric mixtures

Structure (SMILES) | off-target degradation of untagged Brd2 or the other endogenous BET proteins [1] | pDC50 (Ab: Brd2) ([2]; diastereomeric mixtures) | pDC50 (Ab: Brd4^BD2 L387A) ([2]; diastereomeric mixtures) | hook effect ([2]; diastereomeric mixtures) | DC50 [2, 3] [nM] | off-target degradation of untagged Brd2 or the other endogenous BET proteins [1, 4] | pDmax (%) (Ab: Brd4BD2 L387A) [2] | pDmax (%) (Ab:Brd2) [2] | Dmax (%) (Ab: Brd2) ([2]; diastereomeric mixtures) | Dmax (%) (Ab: Brd4^BD2 L387A) ([2]; diastereomeric mixtures) | Dmax of BromoTag-Brd2 degradation ([2]; diastereomeric mixtures) [%] | DC50 ([2]; diastereomeric mixture) [nM]
CCC(C(=O)NCCOCCOCCOCC(=O)N[C@H](C(=O)N1C[C@H](O)C[C@H]1C(=O)NCc1ccc(-c2scnc2C)cc1)C(C)(C)C)C1N=C(c2ccc(Cl)cc2)c2c(sc(C)c2C)-n2c(C)nnc21 (relative stereo) [ET-MZ1 (19), (2S,4R)-1-((2S,17R*)-2-(tert-Butyl)-17-((S*)-4-(4-chlorophenyl)-2,3,9-trimethyl-6H-thieno[3,2-f][1,2,4]triazolo[4,3-a][1,4]diazepin-6-yl)-4,16-dioxo-6,9,12-trioxa-3,15-diazanonadecanoyl)-4-hydroxy-N-(4-(4-methylthiazol-5-yl)benzyl)pyrrolidine-2-carboxamide] | no observable off-target degradation | 6.5 ± 0.2 | 6.6 ± 0.6 | no hook effect | 250 to 360 | – | – | – | – | – | – | –
Cc1ncsc1-c1ccc(CNC(=O)[C@@H]2C[C@@H](O)CN2C(=O)[C@@H](NC(=O)COCCOCCOCCNC(=O)C(C)C2N=C(c3ccc(Cl)cc3)c3c(sc(C)c3C)-n3c(C)nnc32)C(C)(C)C)cc1 (relative stereo) [ME-MZ1 (18), (2S,4R)-1-((2S,17R*)-2-(tert-Butyl)-17-((S*)-4-(4-chlorophenyl)-2,3,9-trimethyl-6H-thieno[3,2-f][1,2,4]triazolo[4,3-a][1,4]diazepin-6-yl)-4,16-dioxo-6,9,12-trioxa-3,15-diazaoctadecanoyl)-4-hydroxy-N-(4-(4-methylthiazol-5-yl)benzyl)pyrrolidine-2-carboxamide] | – | – | – | – | – | induced undesired off-target degradation | 90 | 92 | – | – | – | –
Cc1ncsc1-c1ccc([C@H](C)NC(=O)[C@@H]2C[C@@H](O)CN2C(=O)[C@@H](NC(=O)COCCCOCCNC(=O)C(C)C2N=C(c3ccc(Cl)cc3)c3c(sc(C)c3C)-n3c(C)nnc32)C(C)(C)C)cc1 (relative stereo) [ME-ARV-771 (20), (2S,4R)-1-((2S,15R*)-2-(tert-Butyl)-15-((S*)-4-(4-chlorophenyl)-2,3,9-trimethyl-6H-thieno[3,2-f][1,2,4]triazolo[4,3-a][1,4]diazepin-6-yl)-4,14-dioxo-6,10-dioxa-3,13-diazahexadecanoyl)-4-hydroxy-N-((S)-1-(4-(4-methylthiazol-5-yl)phenyl)ethyl)pyrrolidine-2-carboxamide] | – | 6.4 ± 0.6 | 6.5 ± 0.4 | – | – | induced undesired off-target degradation | 70 | 60 | 60 | 70 | – | –
CCC(C(=O)OCCOCCOCCOCC(=O)N[C@H](C(=O)N1C[C@H](O)C[C@H]1C(=O)NCc1ccc(-c2scnc2C)cc1)C(C)(C)C)C1N=C(c2ccc(Cl)cc2)c2c(sc(C)c2C)-n2c(C)nnc21 (relative stereo) [ET-OMZ1 (23), (S)-13-((2S,4R)-4-Hydroxy-2-((4-(4-methylthiazol-5-yl)benzyl)carbamoyl)pyrrolidine-1-carbonyl)-14,14-dimethyl-11-oxo-3,6,9-trioxa-12-azapentadecyl (R*)-2-((S*)-4-(4-chlorophenyl)-2,3,9-trimethyl-6H-thieno[3,2-f][1,2,4]triazolo[4,3-a][1,4]diazepin-6-yl)butanoate] | no observable off-target degradation | 7.9 ± 0.2 | 7.1 | strong onset of the hook effect | 13 to 80 | – | – | – | – | – | > 75 | –
CC[C@@H](C(=O)OCCOCCCOCC(=O)N[C@H](C(=O)N1C[C@H](O)C[C@H]1C(=O)N[C@@H](C)c1ccc(-c2scnc2C)cc1)C(C)(C)C)[C@@H]1N=C(c2ccc(Cl)cc2)c2c(sc(C)c2C)-n2c(C)nnc21 (relative stereo) [ET-OARV-771 (25), 2-(3-(2-(((S)-1-((2S,4R)-4-Hydroxy-2-(((S)-1-(4-(4-methylthiazol-5-yl)phenyl)ethyl)carbamoyl)pyrrolidin-1-yl)-3,3-dimethyl-1-oxobutan-2-yl)amino)-2-oxoethoxy)propoxy)ethyl (R*)-2-((S*)-4-(4-chlorophenyl)-2,3,9-trimethyl-6H-thieno[3,2-f][1,2,4]triazolo[4,3-a][1,4]diazepin-6-yl)butanoate] | minor off-target degradation of Brd3 | – | – | strong onset of the hook effect | 13 to 16 | – | – | – | – | – | > 75 | –
Cc1ncsc1-c1ccc(CNC(=O)[C@@H]2C[C@@H](O)CN2C(=O)[C@@H](NC(=O)COCCOCCOCCOC(=O)[C@H](C)[C@@H]2N=C(c3ccc(Cl)cc3)c3c(sc(C)c3C)-n3c(C)nnc32)C(C)(C)C)cc1 (relative stereo) [ME-OMZ1 (22), (S)-13-((2S,4R)-4-Hydroxy-2-((4-(4-methylthiazol-5-yl)benzyl)carbamoyl)pyrrolidine-1-carbonyl)-14,14-dimethyl-11-oxo-3,6,9-trioxa-12-azapentadecyl (R*)-2-((S*)-4-(4-chlorophenyl)-2,3,9-trimethyl-6H-thieno[3,2-f][1,2,4]triazolo[4,3-a][1,4]diazepin-6-yl)propanoate] | – | – | – | – | – | induced undesired off-target degradation | 94 | 96 | – | – | – | –
CCC(C(=O)NCCOCCCOCC(=O)N[C@H](C(=O)N1C[C@H](O)C[C@H]1C(=O)N[C@@H](C)c1ccc(-c2scnc2C)cc1)C(C)(C)C)C1N=C(c2ccc(Cl)cc2)c2c(sc(C)c2C)-n2c(C)nnc21 (relative stereo) [ET-ARV-771 (21), (2S,4R)-1-((2S,15R*)-2-(tert-Butyl)-15-((S*)-4-(4-chlorophenyl)-2,3,9-trimethyl-6H-thieno[3,2-f][1,2,4]triazolo[4,3-a][1,4]diazepin-6-yl)-4,14-dioxo-6,10-dioxa-3,13-diazaheptadecanoyl)-4-hydroxy-N-((S)-1-(4-(4-methylthiazol-5-yl)phenyl)ethyl)pyrrolidine-2-carboxamide] | – | 5.7 ± 1.8 | 6.1 ± 0.3 | strong hook effect | – | – | 69 | 51 | 51 | 69 | < 70 | ~1000
Cc1ncsc1-c1ccc([C@H](C)NC(=O)[C@@H]2C[C@@H](O)CN2C(=O)[C@@H](NC(=O)COCCCOCCOC(=O)C(C)C2N=C(c3ccc(Cl)cc3)c3c(sc(C)c3C)-n3c(C)nnc32)C(C)(C)C)cc1 (relative stereo) [ME-OARV-771 (24), 2-(3-(2-(((S)-1-((2S,4R)-4-Hydroxy-2-(((S)-1-(4-(4-methylthiazol-5-yl)phenyl)ethyl)carbamoyl)pyrrolidin-1-yl)-3,3-dimethyl-1-oxobutan-2-yl)amino)-2-oxoethoxy)propoxy)ethyl (R*)-2-((S*)-4-(4-chlorophenyl)-2,3,9-trimethyl-6H-thieno[3,2-f][1,2,4]triazolo[4,3-a][1,4]diazepin-6-yl)propanoate] | – | – | – | – | – | induced undesired off-target degradation | 91 | 91 | – | – | – | –
